Assay [1] relates to cholesterol absorption. Kind of assay: Acute in vivo cholesterol absorption model: inhibition of 14C-cholesterol absorption into plasma, intestinally cannulated rats. The note with it: rat, relative to bile vehicle control. More on the design: species or system Male Sprague-Dawley rats. The protocol:
Male Sprague-Dawley rats weighing 300-400 g were used. After an overnight fast, rats were anesthetized (Inactin, […] i.p.) for the duration of each study and were fitted with a cannula into the small intestine just below the pyloric valve. For the cannulation of the small intestine, a catheter (Surflo® i.v. catheter (18GX2″), Terumo Medical Corporation; Elkton, Md.) was inserted through the fundus of the stomach, advanced 1 cm beyond the pylorus, and ligated in place. Compounds were mixed in rat bile and delivered by bolus injection (1 mL) via the intestinal catheter into the small intestine.
One hour after the bile doses were delivered, three mL of an emulsion consisting of 2.23 mg/mL L-phosphatidylcholine and 11.8 mg/mL triolein in 19 mM sodium taurocholate (Sigma; St. Louis, Mo.) buffer (pH 6.4) containing 3 mg cholesterol and 1 mCi ^14C-cholesterol (NEN; Boston, Mass.) was delivered to each rat as a bolus via the intestinal cannula. Ninety minutes after the cholesterol emulsion was delivered, the rats were euthanized. Blood was collected and plasma was separated by centrifugation at 2000 rpm for 15 min at 4° C. Triplicate aliquots of plasma were analyzed ^14C radioactivity and inhibition of cholesterol absorption relative to bile vehicle control rats was determined.

Assay [2] deals with T1, Scavenger receptor, class B, type I (SR-BI) (Rattus norvegicus, UniProt P97943).
T1 construct: expressed in transfected cells; host or cells: mouse cell line BW5147, infected with pMX retrovirus packaged in BOSC23
T1 sequence (P97943 1-509): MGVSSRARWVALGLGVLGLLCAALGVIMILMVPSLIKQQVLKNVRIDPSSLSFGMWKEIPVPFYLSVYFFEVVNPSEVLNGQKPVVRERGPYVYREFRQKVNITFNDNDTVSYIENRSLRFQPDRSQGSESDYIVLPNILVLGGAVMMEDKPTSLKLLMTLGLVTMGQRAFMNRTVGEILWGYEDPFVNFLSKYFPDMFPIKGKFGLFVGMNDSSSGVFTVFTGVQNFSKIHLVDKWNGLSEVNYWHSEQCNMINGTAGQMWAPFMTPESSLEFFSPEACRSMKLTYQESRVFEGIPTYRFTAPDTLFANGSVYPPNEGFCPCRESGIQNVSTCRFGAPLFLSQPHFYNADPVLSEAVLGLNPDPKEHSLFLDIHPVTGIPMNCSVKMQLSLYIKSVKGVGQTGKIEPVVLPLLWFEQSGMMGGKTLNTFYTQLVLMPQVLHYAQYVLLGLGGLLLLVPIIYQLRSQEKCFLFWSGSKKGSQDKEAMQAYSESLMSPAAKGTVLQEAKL
Kind of assay: Expression cloning of rat intestinal epithelial cDNA library in BW5147 cells, stained with fluorescent compound, FACS. In kind it is cell-based. The conditions noted are these: two clones from two independent cDNA expression libraries, FACS-positive BW5147 cells. The text has this:
The small intestine was removed from male CRL: CD BR rats. Intestinal epithelial cells were isolated by the method of Weiser (Weiser, M., 1973, JBC 248, 2536-2541) and the mRNA extracted. Poly A mRNA was purified and double stranded cDNA synthesized. Adapter linkers were ligated followed by size selection (>2 Kb) of the cDNA. The selected fraction of cDNA was ligated into the retroviral expression plasmid pMX, subsequently transformed into bacteria and grown on selective agar at a clonal density of −30,000/plate. Each pool of bacterial clones was collected and plasmid DNA prepared.
Individual pools of cDNA library were transformed into the retroviral packaging cell line BOSC23 and the resulting viral particles, containing the cDNA library, were used to infect the mouse cell line BW5147. Following infection BW5147 cells were stained with compound 1C and analyzed by fluorescent activated cell sorting (FACS). Positive staining cells (−01%) were recovered and re-cultured. The process of recovering positive staining cells was repeated after expansion of the cell population in culture and following the second round of FACS analysis individual cells were isolated by limiting dilution.
Individual clonal populations of cells were subjected to PCR using retroviral vector specific oligonucleotide primers designed to flank the multiple cloning site in which the cDNA library was cloned. […]

As to `O=C(CCCCCNC(=O)c1ccc(-c2c3ccc(=O)cc-3oc3cc(O)ccc23)c(C(=O)O)c1)NCC#Cc1ccc(N2C(=O)[C@H](CC[C@H](O)c3ccc(F)cc3)[C@H]2c2ccc(O[C@@H]3O[C@H](C(=O)O)[C@@H](O)[C@H](O)[C@H]3O)cc2)cc1` [IB], the “% Inhibition of [14C]-Cholesterol Absorption into Plasma” value came to 79% in assay [1] (dose 56 μg/kg in rat bile via intestinal catheter) and 88% in assay [1] (dose 186 μg/kg in rat bile via intestinal catheter).
Take “[1-O-[4-[1-[4-[3-[[3-[2-[(3,5-DIMETHYL-1H-PYRROL-2-YL-.KAPPA.N)METHYLENE]-2H-PYRROL-5-YL-.KAPPA.N]-1-OXOPROPYL]AMINO]-1-PROPYNYL]PHENYL]-3(R)-[3(S)-HYDROXY-3-(4-FLUOROPHENYL)PROPYL]-2-OXO-4(S)-AZETIDINYL]PHENYL]-BETA-D-GLUCURONATO]DIFLUOROBORATE, HYDROGEN [IC]”: the figures for the “% Inhibition of [14C]-Cholesterol Absorption into Plasma” value in assay [1] (dose 30 μg/kg in rat bile via intestinal catheter) and in assay [1] (dose 100 μg/kg in rat bile via intestinal catheter) were 58% and 80%, respectively. Further, the “cellular receptor identified by expression cloning with the fluorescent compound” value in assay [2] is “identified as the cellular receptor”.

The record behind these values is US7723020B2, “Use of azetidinone compounds” (Schering Corporation, priority 1999, dated 2010).
